Measured values from US20240358842A1, “PROTEIN STABILIZING COMPOUNDS CONTAINING USP7 LIGANDS” (Stablix, Inc., priority 2021, published 2024).
Like-named read-outs stand apart in the source and are kept apart here.

Assays:
USP7 CD + UBL 1-5 = target: T1, USP7 CD + UBL 1-5 (Homo sapiens, UniProt Q93009); assay: Surface plasmon resonance assay (SPR); format: binding
T1 construct: USP7 CD +
Description: The surface plasmon resonance experiments were performed using a Cytiva (formerly GE Healthcare) Biacore 8K equipped with a Series S Sensor Chip SA. The ligands were immobilized via a biotin-modified biotin acceptor peptide. USP7 Ligands were diluted in running buffer (HBS-P+2% DMSO; 10 mM HEPES, pH 7.4, 150 mM NaCl, 1 mM DTT, 0.05% P20, 2% DMSO) to 100 μg/mL and injected at […] until a density between 500-10,000 RU was reached on flow-cell two of each channel, and flow cell one was left blank to serve as a reference surface. Both surfaces were washed until a stable baseline was achieved then 30 startup cycles to condition the surface. To collect kinetic and steady-state binding data, the small molecule analytes were prepared in three-fold dilution series in HBS-P+2% DMSO running buffer. Analytes were injected over both flow cells at a flow rate of […] at 25° C. The complex was allowed to associate for 60 seconds and dissociate for 300 seconds. Data were collected at 10 Hz. The data were fit to a simple 1:1 interaction model global data analysis within Cytiva Biacore Insight Evaluation Software.

USP7 = USP7 (Homo sapiens, UniProt Q93009); assay: Ub-Rho cleavage assay; format: biochemical; conditions: Ub-Rho substrate, recombinant USP7; read-out: Ub (Rho) USP7.1 (IC50)
Chain of USP7 (Q93009 whole entry): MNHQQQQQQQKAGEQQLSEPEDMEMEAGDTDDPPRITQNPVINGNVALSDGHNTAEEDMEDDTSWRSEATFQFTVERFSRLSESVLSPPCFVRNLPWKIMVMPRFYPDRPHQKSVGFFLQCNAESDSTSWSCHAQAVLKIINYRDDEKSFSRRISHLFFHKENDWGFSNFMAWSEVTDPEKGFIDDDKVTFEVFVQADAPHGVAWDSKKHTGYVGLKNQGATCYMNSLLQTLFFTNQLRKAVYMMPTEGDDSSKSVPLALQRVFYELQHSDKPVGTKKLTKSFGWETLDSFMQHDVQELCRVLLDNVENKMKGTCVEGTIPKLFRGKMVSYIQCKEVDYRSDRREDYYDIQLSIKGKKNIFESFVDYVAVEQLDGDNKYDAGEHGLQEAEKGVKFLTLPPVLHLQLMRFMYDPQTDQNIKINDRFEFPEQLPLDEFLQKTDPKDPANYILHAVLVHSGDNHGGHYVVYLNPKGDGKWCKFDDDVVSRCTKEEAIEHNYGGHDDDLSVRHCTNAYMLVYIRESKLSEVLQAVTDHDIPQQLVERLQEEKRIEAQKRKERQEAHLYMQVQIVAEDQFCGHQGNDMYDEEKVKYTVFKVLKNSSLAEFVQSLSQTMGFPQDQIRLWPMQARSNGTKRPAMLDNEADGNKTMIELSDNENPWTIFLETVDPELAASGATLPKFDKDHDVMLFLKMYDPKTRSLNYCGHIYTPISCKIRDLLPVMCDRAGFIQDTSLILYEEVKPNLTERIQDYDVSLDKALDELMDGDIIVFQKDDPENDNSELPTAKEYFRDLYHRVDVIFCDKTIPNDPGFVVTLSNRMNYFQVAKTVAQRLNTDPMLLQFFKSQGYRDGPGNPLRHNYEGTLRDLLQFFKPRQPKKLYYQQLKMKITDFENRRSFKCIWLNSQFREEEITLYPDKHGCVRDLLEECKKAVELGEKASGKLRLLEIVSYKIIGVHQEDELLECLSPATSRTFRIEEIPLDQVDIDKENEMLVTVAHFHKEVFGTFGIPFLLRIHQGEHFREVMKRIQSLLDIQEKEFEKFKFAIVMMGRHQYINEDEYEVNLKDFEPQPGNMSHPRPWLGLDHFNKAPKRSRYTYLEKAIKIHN
Description: All fluorescence measurements were performed on a Molecular Devices FlexStation3 with excitation at 480 nm and emission 540 nm, PMT Gain: Medium, Flash Number: 10. […] Assay buffer for all measurements was 50 mM HEPES, 100 mM NaCl, 0.5 mM EDTA, 1 mM TCEP, 0.1 mg/ml BSA, 0.01% Tween-20, pH 7.8. […] Serial dilutions were made with a Mosquito HTS (SPT Labtech) nanoliter liquid handler. 200 nL of each compound in duplicate or DMSO control were transferred to the assay plate. The first two columns served as positive controls. 9.8 μl per well of USP7 working solution was added to the assay plate. Compound+Protein was incubated for 25 min at 25° C. 10 uL of Ub-Rho substrate was added per well and incubated for an additional 15 min at 25° C. Fluorescence was then measured. Percent response relative to DMSO controls was calculated in GraphPad or Scinamic, and the data was fitted to a non-linear regression to determine IC50 values.

[1] = steady-state KD, read-out: SPR USP7 CD + UBL 1-5 (KD_ss)
[2] = kinetic KD, read-out: SPR USP7 CD + UBL 1-5 (KD_kinetic)

T1 sequence (Q93009 208-1102 limits assumed): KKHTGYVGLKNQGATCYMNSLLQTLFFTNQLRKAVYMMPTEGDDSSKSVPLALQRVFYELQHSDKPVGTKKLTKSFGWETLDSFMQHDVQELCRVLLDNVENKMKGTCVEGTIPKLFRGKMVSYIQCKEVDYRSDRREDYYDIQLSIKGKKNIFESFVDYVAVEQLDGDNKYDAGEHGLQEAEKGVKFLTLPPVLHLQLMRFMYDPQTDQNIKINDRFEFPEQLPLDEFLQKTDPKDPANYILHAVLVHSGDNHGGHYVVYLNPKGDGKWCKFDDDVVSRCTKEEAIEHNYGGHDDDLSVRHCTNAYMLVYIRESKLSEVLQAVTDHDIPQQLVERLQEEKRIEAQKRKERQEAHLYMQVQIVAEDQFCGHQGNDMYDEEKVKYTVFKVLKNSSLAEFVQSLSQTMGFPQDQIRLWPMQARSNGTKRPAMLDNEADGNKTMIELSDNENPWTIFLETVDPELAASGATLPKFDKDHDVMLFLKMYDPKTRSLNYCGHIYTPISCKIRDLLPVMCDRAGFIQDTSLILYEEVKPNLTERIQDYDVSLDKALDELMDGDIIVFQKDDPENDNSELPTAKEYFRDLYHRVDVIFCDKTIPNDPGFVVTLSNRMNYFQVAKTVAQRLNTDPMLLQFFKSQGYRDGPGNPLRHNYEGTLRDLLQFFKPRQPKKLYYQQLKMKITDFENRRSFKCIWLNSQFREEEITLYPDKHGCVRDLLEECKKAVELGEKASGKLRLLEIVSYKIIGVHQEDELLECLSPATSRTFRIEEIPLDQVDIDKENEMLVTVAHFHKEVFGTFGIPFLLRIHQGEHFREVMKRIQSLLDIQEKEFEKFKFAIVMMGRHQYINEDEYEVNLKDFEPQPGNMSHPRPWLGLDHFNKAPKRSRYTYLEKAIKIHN

| Structure (SMILES) | Kd (USP7 CD + UBL 1-5; [1]) [µM] | IC50 (USP7) [µM] | Kd (USP7 CD + UBL 1-5; [2]) [µM] |
| --- | --- | --- | --- |
| Cc1cc(Cl)cc(-c2ccnc3cc(CN4C(=O)CCC4=O)sc23)c1OC1CCN(C(=O)CCOCCOCCOCCNC(=O)OC(C)(C)C)CC1 [U34] | 1 to 100 | 1 to 100 |  |
| Cc1cc(Cl)cc(-c2ccnc3cc(CN4C(=O)CCC4=O)sc23)c1OC1CCN(C(=O)CN=[N+]=[N-])CC1 [U19] | < 1 | < 1 |  |
| C[C@H](CC(=O)N1CCC(O)(Cn2cnc3c(-c4ccc(CNC(=O)CCCCCCNC(=O)OC(C)(C)C)cc4)n(C)nc3c2=O)CC1)c1ccccc1 [U132] |  | < 1 | < 1 |
| CN1CCCn2nc(C(=O)Nc3nc4ccc(NS(=O)(=O)c5cnccn5)cc4s3)cc2C1 [U106] | > 100 | > 100 |  |
| Cn1nc(C(=O)Nc2nc3ccc(NS(=O)(=O)c4cccs4)cc3s2)cc1CN1CCC(CO)CC1 [U105] | 1 to 100 | > 100 |  |
| CCn1cc(S(=O)(=O)Nc2ccc3nc(NC(=O)C4CCN(C)CC4)sc3c2)cn1 [U73] | > 100 | 1 to 100 |  |
| CCc1c(-c2ccc(C(=O)NCCCNC(=O)OC(C)(C)C)nc2)cnc(N)c1-c1ccc(O)cc1 [U7] | 1 to 100 | 1 to 100 | 1 to 100 |
| O=C(Nc1nc2ccc(NS(=O)(=O)c3cccs3)cc2s1)N1CCOCC1 [U126] | 1 to 100 | > 100 |  |
| CN1CCCn2nc(C(=O)Nc3nc4ccc(NS(=O)(=O)c5cc6ccccn6n5)cc4s3)cc2C1 [U130] | 1 to 100 | > 100 |  |
| CCc1c(-c2ccc(C(=O)NCCCNC(=O)CCCCCNC(=O)OC(C)(C)C)nc2)cnc(N)c1-c1ccc(O)cc1 [U50] | 1 to 100 | 1 to 100 |  |
| CN1CCC(NC(=O)c2nc3ccc(NS(=O)(=O)c4cccs4)cc3s2)CC1 [U92] | > 100 | > 100 |  |
| CN1CCn2cc(C(=O)Nc3nc4ccc(NS(=O)(=O)c5cccs5)cc4s3)nc2C1 [U99] | 1 to 100 | > 100 |  |
| CCc1c(-c2ccc(C(=O)NCCOCCOCCOCCN=[N+]=[N-])nc2)cnc(N)c1-c1ccc(O)cc1 [U10] | 1 to 100 | 1 to 100 | 1 to 100 |
| O=C(Nc1nc2ccc(NS(=O)(=O)c3cccs3)cc2s1)c1ccn[nH]1 [U118] | 1 to 100 | > 100 |  |
| Cc1ccsc1S(=O)(=O)Nc1ccc2nc(NC(=O)C3CCN(C)CC3)sc2c1 [U81] | 1 to 100 | > 100 |  |
| CC(C)(C)OC(=O)N1CCC(C(=O)Nc2nc3ccc(N(S(=O)(=O)c4cccs4)S(=O)(=O)c4cccs4)cc3s2)CC1 [U66] | 1 to 100 | > 100 |  |
| CN1CCC(C(=O)Nc2nc3ccc(N(C)S(=O)(=O)c4cccs4)cc3s2)CC1 [U75] | > 100 | > 100 |  |
| O=C(O)c1ccnc(Nc2nc3ccc(NS(=O)(=O)c4cccs4)cc3s2)n1 [U85] | > 100 | > 100 |  |
| C[C@H](CC(=O)N1CCC(O)(Cn2cnc3cc(Br)ccc3c2=O)CC1)c1ccccc1 [U3] | 1 to 100 | 1 to 100 | 1 to 100 |
| CCc1c(-c2ccc3[nH]ncc3c2)cnc(CNC(=O)OC(C)(C)C)c1-c1ccc(O)cc1 [U60] | 1 to 100 | 1 to 100 |  |
| C=CC(=O)N1CCC(C(=O)Nc2nc3ccc(NS(=O)(=O)c4cccs4)cc3s2)C1 (centres unmarked) [U129] | 1 to 100 | > 100 |  |
| CCc1c(-c2ccc(C(=O)NCCCNC(=O)CCOCCOCCOCCNC(=O)OC(C)(C)C)nc2)cnc(N)c1-c1ccc(O)cc1 [U57] | 1 to 100 | 1 to 100 |  |
| Cc1cc(Cl)cc(-c2ccnc3cc(CN4C(=O)CCC4=O)sc23)c1OC1CCN(C(=O)CCOCCNC(=O)OC(C)(C)C)CC1 [U32] | 1 to 100 | 1 to 100 |  |
| CN1CCCn2nc(C(=O)Nc3nc4ccc(NS(=O)(=O)c5nn6ccccc6c5Cl)cc4s3)cc2C1 [U121] | 1 to 100 | > 100 |  |
| C[C@H](CC(=O)N1CCC(O)(Cn2cnc(N3CCN(CCN)CC3)cc2=O)CC1)c1ccccc1 [U59] | < 1 | 1 to 100 |  |
| CCc1c(-c2ccc(C(=O)NC)nc2)cnc(NCCN)c1-c1ccc(O)cc1 [U62] | < 1 | 1 to 100 |  |
| CCc1c(-c2ccc(C(=O)NCCN)nc2)cnc(N)c1-c1ccc(O)cc1 [U61] | < 1 | < 1 |  |
| NCCN(c1ccc2nc(NC(=O)c3ccco3)sc2c1)S(=O)(=O)c1cccs1 [U94] | 1 to 100 | > 100 |  |
